Source: patent publication US12139520B2 (priority 2020, dated 2024)
Bridge positions count the residues as written; N and C are the ends. Square brackets hold non-standard residues; d marks the D form. Peptide text beside a SMILES is read from it. Hyp = O=C(O)[C@@H]1C[C@@H](O)CN1; Cit = NC(=O)NCCC[C@H](N)C(=O)O

Key:
[1] = target: T1, hAMY3 receptor (Homo sapiens, UniProt O60896+P30988); assay: cAMP assay for in vitro receptor activation, hAMY3-R; assay type: cell-based; conditions: cAMP assay, hAMY3 receptor; read-out: hAMY3R EC50
T1 sequence (P30988 25-474): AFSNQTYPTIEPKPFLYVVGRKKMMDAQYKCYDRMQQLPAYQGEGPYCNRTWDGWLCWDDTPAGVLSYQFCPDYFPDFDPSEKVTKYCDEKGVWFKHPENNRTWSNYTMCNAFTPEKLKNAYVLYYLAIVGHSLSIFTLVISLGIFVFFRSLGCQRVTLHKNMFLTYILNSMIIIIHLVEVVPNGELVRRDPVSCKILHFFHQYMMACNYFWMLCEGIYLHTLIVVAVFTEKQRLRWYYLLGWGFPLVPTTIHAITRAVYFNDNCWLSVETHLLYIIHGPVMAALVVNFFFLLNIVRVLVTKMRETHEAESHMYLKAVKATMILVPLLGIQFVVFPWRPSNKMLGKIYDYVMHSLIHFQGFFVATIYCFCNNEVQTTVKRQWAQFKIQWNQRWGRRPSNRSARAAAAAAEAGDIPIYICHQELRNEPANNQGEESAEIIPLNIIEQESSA
T1 sequence (O60896 24-148 partner): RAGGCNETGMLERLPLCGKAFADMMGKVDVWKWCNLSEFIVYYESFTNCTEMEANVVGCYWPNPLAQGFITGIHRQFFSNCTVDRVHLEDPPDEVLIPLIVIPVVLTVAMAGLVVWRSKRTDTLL
How it was run: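 Receptor activation was measured as cAMP accumulation in a monoclonal cell line stably overexpressing hAMY3. Stimulation with graded doses lasted 30 min at room temperature in the presence of 0.5 mM IBMX, with human amylin as positive control.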

[2] = Physical stability of peptide analogues (Thioflavin T fibrillation); assay type: physicochemical; conditions: maximum ThT signal normalized between hAMY maximum and buffer background; 40° C., shaking, four days; pH 7 per table title
How it was run: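 Peptides in 50 mM sodium acetate pH 4 or 50 mM sodium phosphate pH 7 were preincubated 1 h, mixed with 4 μM ThT, held at 40° C with 700 rpm shaking before each read. Fluorescence (ex 450/em 480 nm) every 10 min for four days; LOESS-smoothed maximum signal normalized in percent between hAMY and buffer.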

[3] = target: hAM1 receptor (Homo sapiens, UniProt O60895+Q16602); assay: cAMP assay for in vitro receptor activation, hAM1-R; assay type: cell-based; conditions: cAMP assay, hAM1 receptor; read-out: hAM1R EC50
How it was run: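 cAMP accumulation was measured in a monoclonal cell line stably overexpressing the hAM1 receptor. Frozen aliquots were thawed and plated at 8000 cells/well in DPBS containing 0.05% casein and 0.5 mM IBMX.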

Chain of hAM1 receptor (Q16602 23-461): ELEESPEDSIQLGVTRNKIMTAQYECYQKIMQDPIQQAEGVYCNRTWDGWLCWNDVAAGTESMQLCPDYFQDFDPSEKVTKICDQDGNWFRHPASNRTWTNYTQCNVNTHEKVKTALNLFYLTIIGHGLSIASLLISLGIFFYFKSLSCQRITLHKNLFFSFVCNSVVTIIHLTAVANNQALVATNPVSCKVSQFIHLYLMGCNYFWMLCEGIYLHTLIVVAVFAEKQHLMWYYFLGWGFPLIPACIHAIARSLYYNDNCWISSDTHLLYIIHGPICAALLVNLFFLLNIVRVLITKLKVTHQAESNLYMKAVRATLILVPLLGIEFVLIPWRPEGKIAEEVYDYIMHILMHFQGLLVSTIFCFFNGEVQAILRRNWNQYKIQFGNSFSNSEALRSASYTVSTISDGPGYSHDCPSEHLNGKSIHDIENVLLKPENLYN
Chain of hAM1 receptor (O60895 43-175 partner): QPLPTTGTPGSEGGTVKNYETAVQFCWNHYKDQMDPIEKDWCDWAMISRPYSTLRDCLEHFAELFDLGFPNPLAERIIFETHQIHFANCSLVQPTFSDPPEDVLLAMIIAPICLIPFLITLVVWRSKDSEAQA

| Compound | EC50 [1] | Max ThT signal (%) [2] | EC50 [3] |
| --- | --- | --- | --- |
| CC[C@H](C)[C@H](NC(=O)[C@H](CCC(N)=O)NC(=O)[C@H](Cc1c[nH]cn1)NC(=O)[C@H](C)NC(=O)[C@H](CC(C)C)NC(=O)[C@H](Cc1c[nH]c2ccccc12)NC(=O)[C@H](CCC(N)=O)NC(=O)[C@@H](NC(=O)[C@@H](NC(=O)[C@@H]1CSSC[C@H](NC(=O)[C@@H](N)CCCCN)C(=O)N[C@@H](CC(N)=O)C(=O)N[C@@H]([C@@H](C)O)C(=O)N[C@@H](C)C(=O)N[C@@H]([C@@H](C)O)C(=O)N1)[C@@H](C)O)C(C)C)C(=O)N[C@@H](Cc1ccc(O)cc1)C(=O)N[C@@H](CCC(N)=O)C(=O)N[C@@H](Cc1ccccc1)C(=O)N[C@H](C(=O)N[C@@H](CC(=O)O)C(=O)N[C@@H](C)C(=O)N[C@@H](CC(=O)O)C(=O)N[C@@H](CCCCN)C(=O)N[C@@H](CC(=O)O)C(=O)N[C@@H](CC(N)=O)C(=O)N[C@H](C(=O)N[C@@H](C)C(=O)N1CCC[C@H]1C(=O)N1CCC[C@H]1C(=O)N[C@H](C(=O)N[C@@H](CC(N)=O)C(=O)N[C@H](C(=O)NCC(=O)N[C@@H](CO)C(=O)N[C@@H](CC(N)=O)C(=O)NCC(=O)N1C[C@H](O)C[C@H]1C(N)=O)C(C)C)[C@@H](C)O)C(C)C)[C@@H](C)O [compound 328] (H-KCNTATCTVQWLAHQIYQFTDADKDNVAPPTNVGSNG[Hyp]-NH2; disulfide 2-7; N-terminus assumed) | 0.01 nM | 33.250% | > 5000 nM |
| CC[C@H](C)[C@H](NC(=O)[C@H](CCC(N)=O)NC(=O)[C@H](Cc1c[nH]cn1)NC(=O)[C@H](C)NC(=O)[C@H](CC(C)C)NC(=O)[C@H](Cc1c[nH]c2ccccc12)NC(=O)[C@H](CCC(N)=O)NC(=O)[C@@H](NC(=O)[C@@H](NC(=O)[C@@H]1CSSC[C@H](NC(=O)[C@@H](N)CCCCN)C(=O)N[C@@H](CC(N)=O)C(=O)N[C@@H]([C@@H](C)O)C(=O)N[C@@H](C)C(=O)N[C@@H]([C@@H](C)O)C(=O)N1)[C@@H](C)O)C(C)C)C(=O)N[C@@H](Cc1ccc(O)cc1)C(=O)N[C@@H](CCC(N)=O)C(=O)N[C@@H](Cc1ccccc1)C(=O)N[C@@H](CC(=O)O)C(=O)N[C@@H](CCCCN)C(=O)N[C@@H](CC(=O)O)C(=O)N[C@@H](CCCCN)C(=O)N[C@@H](CC(=O)O)C(=O)N[C@@H](CC(N)=O)C(=O)N[C@H](C(=O)N[C@@H](C)C(=O)N1CCC[C@H]1C(=O)N1CCC[C@H]1C(=O)N[C@H](C(=O)N[C@@H](CC(N)=O)C(=O)N[C@H](C(=O)NCC(=O)N[C@@H](CO)C(=O)N[C@@H](CC(N)=O)C(=O)NCC(=O)N1C[C@H](O)C[C@H]1C(N)=O)C(C)C)[C@@H](C)O)C(C)C [compound 329] (H-KCNTATCTVQWLAHQIYQFDKDKDNVAPPTNVGSNG[Hyp]-NH2; disulfide 2-7; N-terminus assumed) | 0.032 nM | 6.350% | > 5000 nM |
| CC[C@H](C)[C@H](NC(=O)[C@H](CCC(N)=O)NC(=O)[C@H](Cc1c[nH]cn1)NC(=O)[C@H](C)NC(=O)[C@H](CC(C)C)NC(=O)[C@H](CCCNC(N)=O)NC(=O)[C@H](CCC(N)=O)NC(=O)[C@@H](NC(=O)[C@@H](NC(=O)[C@@H]1CSSC[C@H](NC(=O)CN)C(=O)N[C@@H](CCCNC(=N)N)C(=O)N[C@@H](Cc2ccccc2)C(=O)NCC(=O)N[C@@H]([C@@H](C)O)C(=O)N1)[C@@H](C)O)C(C)C)C(=O)N[C@@H](Cc1ccc(O)cc1)C(=O)N[C@@H](CCC(N)=O)C(=O)N[C@@H](Cc1ccccc1)C(=O)N[C@H](C(=O)N[C@@H](CC(=O)O)C(=O)N[C@@H](CCCCN)C(=O)N[C@@H](CC(=O)O)C(=O)N[C@@H](CCCCN)C(=O)N[C@@H](CC(=O)O)C(=O)N[C@@H](CC(N)=O)C(=O)N[C@H](C(=O)N[C@@H](C)C(=O)N1CCC[C@H]1C(=O)N[C@@H](CCCNC(=N)N)C(=O)N[C@H](C(=O)N[C@@H](CC(N)=O)C(=O)N[C@H](C(=O)N[C@@H](CO)C(=O)N1CCC[C@H]1C(=O)N[C@@H](CCC(N)=O)C(=O)NCC(=O)N1C[C@H](O)C[C@H]1C(N)=O)C(C)C)[C@@H](C)O)C(C)C)[C@@H](C)O [compound 283] (H-GCRFGTCTVQ[Cit]LAHQIYQFTDKDKDNVAPRTNVSPQG[Hyp]-NH2; disulfide 2-7; N-terminus assumed) | 0.035 nM | 17.100% | > 5000 nM |

Next, values leading:

| EC50 [1] | Max ThT signal (%) [2] | EC50 [3] | Compound |
| --- | --- | --- | --- |
| 0.053 nM | 20.900% | > 5000 nM | CC[C@H](C)[C@H](NC(=O)[C@H](CCC(N)=O)NC(=O)[C@H](CCC(=O)O)NC(=O)[C@H](C)NC(=O)[C@H](CC(C)C)NC(=O)[C@H](CCCNC(N)=O)NC(=O)[C@H](CCC(N)=O)NC(=O)[C@@H](NC(=O)[C@@H](NC(=O)[C@@H]1CSSC[C@H](NC(=O)[C@@H](N)CCCCN)C(=O)N[C@@H](CC(N)=O)C(=O)N[C@@H]([C@@H](C)O)C(=O)N[C@@H](C)C(=O)N[C@@H]([C@@H](C)O)C(=O)N1)[C@@H](C)O)C(C)C)C(=O)N[C@@H](Cc1ccc(O)cc1)C(=O)N[C@@H](CCC(N)=O)C(=O)N[C@@H](Cc1ccccc1)C(=O)N[C@H](C(=O)N[C@@H](CC(=O)O)C(=O)N[C@@H](CCCCN)C(=O)N[C@@H](CC(=O)O)C(=O)N[C@@H](CCCCN)C(=O)N[C@@H](CC(=O)O)C(=O)N[C@@H](CC(N)=O)C(=O)N[C@H](C(=O)N[C@@H](CO)C(=O)N1CCC[C@H]1C(=O)N1CCC[C@H]1C(=O)N[C@H](C(=O)N[C@@H](CC(N)=O)C(=O)N[C@H](C(=O)NCC(=O)N[C@@H](CO)C(=O)N[C@@H](CC(N)=O)C(=O)NCC(=O)N1C[C@H](O)C[C@H]1C(N)=O)C(C)C)[C@@H](C)O)C(C)C)[C@@H](C)O [compound 266] (H-KCNTATCTVQ[Cit]LAEQIYQFTDKDKDNVSPPTNVGSNG[Hyp]-NH2; disulfide 2-7; N-terminus assumed) |
| 0.008 nM | 9.100% | > 5000 nM | CC[C@H](C)[C@H](NC(=O)[C@H](CCC(N)=O)NC(=O)[C@H](Cc1c[nH]cn1)NC(=O)[C@H](C)NC(=O)[C@H](CC(C)C)NC(=O)[C@H](CCCNC(=N)N)NC(=O)[C@H](CCC(N)=O)NC(=O)[C@@H](NC(=O)[C@@H](NC(=O)[C@@H]1CSSC[C@H](NC(=O)[C@@H](N)CCCCN)C(=O)N[C@@H](CC(N)=O)C(=O)N[C@@H]([C@@H](C)O)C(=O)N[C@@H](C)C(=O)N[C@@H]([C@@H](C)O)C(=O)N1)[C@@H](C)O)C(C)C)C(=O)N[C@@H](Cc1ccc(O)cc1)C(=O)N[C@@H](CCC(N)=O)C(=O)N[C@@H](Cc1ccccc1)C(=O)N[C@H](C(=O)N[C@@H](CC(=O)O)C(=O)N[C@@H](CCCCN)C(=O)N[C@@H](CC(=O)O)C(=O)N[C@@H](CCCCN)C(=O)N[C@@H](CC(=O)O)C(=O)N[C@@H](CC(N)=O)C(=O)N[C@H](C(=O)N[C@@H](C)C(=O)N1CCC[C@H]1C(=O)N[C@@H](CCCNC(=N)N)C(=O)N[C@H](C(=O)N[C@@H](CCCCN)C(=O)N[C@H](C(=O)NCC(=O)N[C@@H](CO)C(=O)N[C@@H](CC(N)=O)C(=O)NCC(=O)N1C[C@H](O)C[C@H]1C(N)=O)C(C)C)[C@@H](C)O)C(C)C)[C@@H](C)O [compound 20] (H-KCNTATCTVQRLAHQIYQFTDKDKDNVAPRTKVGSNG[Hyp]-NH2; disulfide 2-7; N-terminus assumed) |
